Publication PMC2848619, “The Combinatorial PP1-Binding Consensus Motif (R/K)x (0,1)V/IxFxx(R/K)x(R/K) Is a New Apoptotic Signature” (PLoS ONE, 2010)
Where a SMILES comes first, the peptide text is derived from it. Where no end group is shown, it is not given here. The star is where a group is joined. Biotin = O=C1N[C@H]2[C@H](CS[C@H]2CCCCC(=O)*)N1

Assays:
HeLa cells = assay: Quantification of peptide internalization: intracellular delivery of streptavidin-peroxidase (OPD); assay type: cell-based, human; settings: 6 hrs at 37°C, compared with TAT peptide
Experimental: Before incubation, the peptides were preincubated for 1 h with streptavidin HRP conjugate in a 4/1 ratio. Cells at 80% confluence were incubated with different concentrations of peptide in 24-well plates. After 6 h, cells were washed twice in PBS, trypsinized (Trypsin EDTA, Invitrogen) and harvested in 1 ml of PBS and counted. Cells were lysed in 300 µl of 0.1 M Tris pH 7.4, and 0.5% Nonidet P-40 buffer for 10 min on ice. A total of 50 µl of cell lysate was mixed with 50 µl of OPD buffer (51.4 mM Na2HPO4 and 24.3 mM citric acid) then mixed with 100 µl of OPD solution (one OPD tablet from Sigma (St. Louis MO) in 100 ml of OPD buffer to which 40 µl of 30% hydrogen peroxide was added just before use). After 10 to 20 min, the reaction was stopped by adding 100 µl of 1 M HCl, and optical density was read at 490 nm.

PP1c [1] = assay: Pull down assay of biotinylated peptides with PP1c from HeLa cell extracts; assay type: binding, human; settings: peptide 100 µM on streptavidin magnetic beads, HeLa cell lysate, 2 h 4°C, western blot with PP1 antibodies
Experimental: Biotinylated peptides were pre-incubated for 2 h at 100 µM (final concentration with lysate) and room temperature with 30 µl of streptavidin-coated immunomagnetic beads (Calbiochem, San Diego CA). During this time, 1×10^6 HeLa cells at 90% of confluence per test peptide were washed with PBS, trypsinized, harvested with PBS, washed with 1 ml of PBS, and centrifuged at 600 g and 4°C for 10 min. Cell pellets were lysed 10 min on ice with 400 µl of lysis buffer (50 mM Tris pH 7.4, 200 mM NaCl, 10 mM EDTA, 20% Glycerol, 1% Nonidet P-40, 1 mM phenylmethylsulfonyl fluoride (PMSF), 10 mM NaF, 1 mM orthovanadate, and “complete mini EDTA free” protease inhibitor cocktail from Roche). Lysates were clarified at 13,000 g for 10 min at 4°C and after rotation with supernatant at 4°C for 2 h, biotinylated peptides were pulled down with streptavidine magnetic beads and washed twice with 750 µl of lysis buffer. Bound proteins and clarified lysates were analyzed by western blotting using PP1 antibodies.

PP1c [2] = assay: PP1c binding of DPT-APAF peptides (abstract only); settings: stated in abstract only
[3] = Apoptotic effect of DPT-APAF peptides (abstract only); assay type: cell-based; settings: stated in abstract only

In the case of `CC[C@H](C)[C@H](NC(=O)[C@@H](NC(=O)CNC(=O)[C@H](CCCCN)NC(=O)CCCC[C@@H]1SC[C@@H]2NC(=O)N[C@@H]21)C(C)C)C(=O)N[C@@H](Cc1ccccc1)C(=O)N[C@@H](Cc1ccc(O)cc1)C(=O)N[C@@H](CC(C)C)C(=O)N[C@@H](CCCNC(=N)N)C(=O)N[C@@H](CC(=O)O)C(=O)N[C@@H](CCCCN)C(=O)O` [DPT-AIF1] (Biotin-KGVIFYLRDK-OH), the “Ability to internalize Streptavidin-HRP conjugated molecules (in words)” value (HeLa cells) is reported as “able to internalize Streptavidin-HRP conjugated molecules even more efficiently than the well characterized positive control TAT peptide”.

In the case of `CC[C@H](C)[C@H](NC(=O)[C@@H](NC(=O)CNC(=O)[C@H](CCCCN)NC(=O)CCCC[C@@H]1SC[C@@H]2NC(=O)N[C@@H]21)C(C)C)C(=O)N[C@@H](C)C(=O)N[C@@H](Cc1ccc(O)cc1)C(=O)N[C@@H](CC(C)C)C(=O)N[C@@H](CCCNC(=N)N)C(=O)N[C@@H](CC(=O)O)C(=O)N[C@@H](CCCCN)C(=O)O` [DPT-AIF2] (Biotin-KGVIAYLRDK-OH), the “Ability to internalize Streptavidin-HRP conjugated molecules (in words)” value (HeLa cells) is reported as “not DPT-AIF2”.

In the case of “DPT-AIF4: mutated peptide of 8 accessible residues of AIF564–571 containing the F566A mutation (Biotin-VIAYLRDK)”, the “Co-precipitation of PP1c with biotinylated peptide” value (PP1c [1]) is reported as “unable to co-precipitate PP1c”.

For “DPT-APAF1: bi-partite cell penetrating peptide containing APAF-1_122–131 linked to DPT-sh1 peptide shuttle (RPVVFVTRKK; also: linked to DPT-sh1 shuttle peptide, junction not given here; UniProt O14727 122-131, looked up, fragment)”, the PP1c binding (PP1c [2]) was “PP1-interacting” and the Apoptotic effect [3] was “death molecule”.
